“Also recorded” adds a separate entry of the source. Read-outs that look alike come from different tables or passages of the source.
How the values were obtained:
thymus = assay type: in vivo, rat (Wistar, young male)
Experimental: The thymolytic effects have been examined by means of a test, the principle of which is as follows:
The repeated administration of a gluco-corticoid having a systemic activity causes an involution of the defence system of the organism, of which two organs belong to the reticulo-endothelial system, the spleen and the thymus, this latter being the most sensitive to this action, especially with young animals. The thymic involution is estimated by weighing.
The various products were injected daily by the oral or the sub-cutaneous route for four days, to young male rats of Wistar-strain, the initial weight of which was between 45 and 55 grams, distributed at random by groups of ten.
The products under study were administered at a volume of 0.2 ml. per animal for both methods, in suspension in:
Carboxy-methyl-cellulose at 5 % for sub-cutaneous injection;
Gum arabic at 5 % for the oral route.
The animals of the reference groups received the same volume of the corresponding vehicle.
Ninety-six hours after the first administration, the animals were killed, the thymus glands being taken and weighed immediately.
For each animal, the weight of the thymus has been brought to 100 grams of body weight. The thymolytic activity of the products under study was then expressed as a percentage of regression of the thymus with respect to the animals of the reference group and the ED50 of each product tested was estimated by transferring the percentage inhibition obtained for each dose on semi-logarithmic paper.

[1] = Action on the hydro-mineral metabolism: sodium excretion, 96 hours treatment; assay type: in vivo, rat (Wistar, male); settings: for Sodium excreted, average ± standard error: 96 hours treatment, 5 h urine
Description: The action on the hydro-mineral metabolism was examined by means of a test, the principle of which is as follows:
The gluco-corticoids are not all free from mineral-corticoid effects (for example hydro-cortisone). These latter are indicated by:
A reduced renal elimination of sodium (sodium retention);
a loss of potassium (potassium leakage), these two effects reproducing the action of aldosteron.
This study has been carried out on male Wistar rats having weights between 180 and 190 grams.
The animals were distributed at random in groups of ten.
The products under study were administered by the oral route in suspension in 5 % gum arabic. The animals of the reference group received the same volume of vehicle under the same conditions.
The treatments were carried out daily for 4 days.
The renal functional exploratory test was effected […] after the first administration of the product tested.
Eighteen hours before the test, the animals were completely deprived of food and water, this being subsequently maintained up to the end of the test.
Immediately before the renal functional test, the animals received an overdose by the oral route of physiological solution equal to 5 % by volume of their body weight.
The urine passed during five hours was collected for each animal in a polyethylene tube.
The concentration of sodium was determined in each sample by flame photometry; the total quantitt excreted was then calculated as a function of the corresponding volume of urine. The values obtained for each group were then compared following the Fisher Student method with the quantity of sodium excreted by the animals of the reference group.
The results obtained with hydro-cortisone acetate and the JO 1016 in the case of a treatment lasting 96 hours following the procedure (f) are indicated in the following Table XVI.

[2] = tested on: liver, kidneys, spleen, thymus, stomach; assay type: in vivo, rat (Sprague-Dawley); settings: strong dose (436 mg/kg s.c. daily), male rat; study broken off on the 14th day
[3] = Glycemia after 4 weeks treatment; assay type: in vivo, rat (Sprague-Dawley)
Experimental: (§1) The action on the endocrine glands and the genital tractus, and a possible ulcerogenic effect were investigated, together with the effects on the glucidic and proteic metabolisms, on the hydro-mineral equilibrium after long-term administration.
(§2) There were utilized groups of 10 male rats and ten female rats of Sprague-Dawley S.P.F. strain which have been given the products under study by sub-cateneous methods daily for four weeks.
(§3) The products were administered in suspension in 5 % carboxy-methyl-cellulose under a volume of 0.5 ml. per 100 grams of body weight, in three different doses, the animals of the reference lot receiving the same volume of the vehicle alone.
(§4) In order to confirm certain previous results of the pharmacological short-term study, there has furthermore been determined, for each lot of animals:
(§5) at the end of the treatment:
(§6) During the course of the long-term study, the JO 1016 was administered daily to the male and female rats in doses of 100 mg/kg, 250 mg/kg, 500 mg/kg by the sub-cutaneous route.
The following Tables XIV and XV indicate the results of the proportions of glycemia with the reference animals and animals treated for 4 weeks following the procedure (h)

[4] = Hydro-mineral equilibrium: sodium excretion after 4 weeks treatment; assay type: in vivo, rat (Sprague-Dawley); settings: male rat, 500 mg/kg s.c.
Experimental: as §1, §2, §3, §4, §5
the sodium excretion in 5 hours
as §6

[5] = Body weight after long-term sub-cutaneous treatment; assay type: in vivo, rat (Sprague-Dawley); settings: 4 weeks
Experimental: as §1, §2, §3, §4
The evolution of weight and the consumption of food during the treatment;
During the course of the long-term study, the JO 1016 was administered daily to the male and female rats in doses of 100 mg/kg, 250 mg/kg, 500 mg/kg by the sub-cutaneous route. […]

[6] = tested on: adrenal glands, gonads, seminal vesicles, uterine tubes; test: Action on the endocrine glands and the genital tractus: organ weights and histology, long-term treatment; assay type: in vivo, rat (Sprague-Dawley); settings: for Ovaries weight / Seminal vesicles weight / Testicles weight / Uterine tubes weight / Adrenal glands weight: 4 weeks, N.S.
Description: as §1
The repeated administration of corticoids may result in an inhibition of the secretion of the ante-hypophysiary hormone which is shown by a lowering of the effectiveness of the target-glands (example: adrenal-glandes) and indirectly of certain organs which are under the dependence of a hormone secretion (example: genital tractus).
These studies have been carried out for some of the products according to the invention after sub-chronic administration.
as §2, §3
At the end of this study there were extracted:
(2) the gonads (testicles or ovaries);
(3) the seminal vesicles or the uterine tubes;
The samples numbered (1), (2) and (3) were immediately weighed. All the samples were then fixed for histological examination in the Bouin-Holland fixator.
as §6
After a long-term treatment by the JO 1016, following the procedure (h), the average weights of the following organs: adrenal glandes, gonads, seminal vesicles, uterine tubes are indicated in the following Table XXII

CC(=O)OCC(=O)[C@@]1(O)CC[C@H]2[C@@H]3CCC4=CC(=O)CC[C@]4(C)[C@H]3[C@@H](O)C[C@@]21C [Hydrocortisone (acetate), Hydrocortisone acetate, reference compound]
ED50 thymolytic activity, sub-cutaneous route (thymus; rat, in vivo, 5760 min): 0.68 mg | ED50 thymolytic activity, oral route (thymus; rat, in vivo, po, 5760 min): 4 mg | Sodium excreted, average ± standard error ([1]; 16 mg/kg oral): 0,371 ± 0,0827 Meq | Mortality [2]: high mortality observed with the strong dose

CC(C)(C)C(=O)SCC(=O)[C@@]1(O)CC[C@H]2[C@@H]3CCC4=CC(=O)CC[C@]4(C)[C@H]3[C@@H](O)C[C@@]21C [JO 1016, Dihydroxy-11β, 17α thio-21 dioxo-3,20 pregnene-4-21 pivalate]
ED50 thymolytic activity, oral route (thymus; oral, total dose administered during four days per rat of about 50 g): 400 mg | ED50 thymolytic activity, sub-cutaneous route (thymus; sub-cutaneous, total dose administered during four days per rat of about 50 g): > 120 mg | Glycemia, average ± standard error ([3]; female, 500 mg/kg s.c.): 1,10 ± 0,04 g/liter | Glycemia, average ± standard error ([3]; male, 100 mg/kg s.c.): 1.2 ± 0.04 g/L | Glycemia, average ± standard error ([3]; male, 250 mg/kg s.c.): 1.2 ± 0.05 g/L | Glycemia, percentage of variation and probabilities ([3]; male, 500 mg/kg s.c.): N.S. | Sodium excreted, average ± standard error ([1]; 16 mg/kg oral): 0.820 ± 0.1040 Meq | Sodium excreted, percentage of variation ([1]; 16 mg/kg oral, 96 hours, hydrocortisone acetate 0,001 < p < 0,01, JO 1016 N.S.): 0,4% | Sodium excreted, average ± standard error ([1]; 32 mg/kg oral): 0.754 ± 0.0465 Meq | Sodium excreted, average ± standard error ([1]; 80 mg/kg oral): 0.684 ± 0.1591 Meq | Sodium excreted, average ± standard error ([1]; 160 mg/kg oral): 0.664 ± 0.0484 Meq | Sodium excreted, average ± standard error [4]: 1,41 ± 0,116 Meq | Body weight, average ± standard error ([5]; female rats, 100 mg/kg s.c.): 219 ± 3.06 g | Body weight, percentages of variation and probabilities ([5]; female rats, 100 mg/kg s.c.): N.S. | Body weight, average ± standard error ([5]; female rats, 250 mg/kg s.c.): 216 ± 3.18 g | Body weight, percentages of variation and probabilities ([5]; female rats, 250 mg/kg s.c.): N.S. | Body weight, average ± standard error ([5]; female rats, 500 mg/kg s.c.): 198 ± 4.85 g | Body weight, average ± standard error ([5]; male rats, 100 mg/kg s.c.): 299 ± 45.2 g | Body weight, percentages of variation and probabilities ([5]; male rats, 100 mg/kg s.c.): N.S. | Body weight, average ± standard error ([5]; male rats, 250 mg/kg s.c.): 289 ± 7.7 g | Body weight, percentages of variation and probabilities ([5]; male rats, 250 mg/kg s.c.): N.S. | Body weight, average ± standard error ([5]; male rats, 500 mg/kg s.c.): 274 ± 2,5 g | Ovaries weight ([6]; 100 mg/kg s.c.): 38.4 mg | Seminal vesicles weight ([6]; 100 mg/kg s.c.): 328.0 mg | Testicles weight ([6]; 100 mg/kg s.c.): 1.143 g | Uterine tubes weight ([6]; 100 mg/kg s.c.): 211.8 mg | Ovaries weight ([6]; 250 mg/kg s.c.): 38.3 mg | Seminal vesicles weight ([6]; 250 mg/kg s.c.): 296.0 mg | Testicles weight ([6]; 250 mg/kg s.c.): 1.144 g | Uterine tubes weight ([6]; 250 mg/kg s.c.): 184.7 mg | Ovaries weight ([6]; 500 mg/kg s.c.): 39.3 mg | Seminal vesicles weight ([6]; 500 mg/kg s.c.): 274.6 mg | Testicles weight ([6]; 500 mg/kg s.c.): 1.207 g | Uterine tubes weight ([6]; 500 mg/kg s.c.): 165.4 mg | Adrenal glands weight ([6]; female rats, 100 mg/kg s.c.): 26.7 mg | Adrenal glands weight ([6]; female rats, 250 mg/kg s.c.): 24,5 mg | Adrenal glands weight ([6]; female rats, 500 mg/kg s.c.): 27,0 mg | Histological examination of organs ([6]; long-term s.c. treatment): has not furthermore brought into evidence any alteration of their structure; also recorded: neither atrophy nor surrenal hypertrophy; also recorded: nor modification of the functional aspect of the male and female genital organs | Adrenal glands weight ([6]; male rats, 100 mg/kg s.c.): 14.9 mg | Adrenal glands weight ([6]; male rats, 250 mg/kg s.c.): 12,3 mg | Adrenal glands weight ([6]; male rats, 500 mg/kg s.c.): 13.5 mg
